{
  "source": "patent US7977120B2",
  "about": "“Fluorescent sensors for cellular amines” (The Curators of the University of Missouri, priority 2005, dated 2011)",
  "key": {"[1]": {"tested_on": "norepinephrine-enriched chromaffin cells", "test": "Staining norepinephrine-enriched chromaffin cells with Sensor IIb", "type": "cell-based", "conditions": "0.25 μM, 15 minutes, 37 C, confocal microscopy; compared with epinephrine-enriched cells", "from_the_text": "(§1) The adrenal medulla contains two types of chromaffin cells; those that primarily contain norepinephrine within vesicles and those that primarily contain epinephrine. The two types of cells can be separated upon high-speed centrifugation in a Percoll density gradient. Following centrifugation, the less-dense norepinephrine enriched cells can be collected from the top of the gradient, whereas the denser epinephrine-enriched cells settle to the bottom.\n(§2) Following centrifugation of adrenal medullary cells in a Percoll density gradient, the less-dense norepinephrine enriched cells were collected from the top of the gradient, whereas the denser epinephrine-enriched cells were collected from the bottom of the gradient. Both collections of cells were incubated for 15 minutes at 37 C in 0.25 μM IIb dissolved in cell culture media. The cells were then washed in dye-free media and observed using a confocal microscope at room temperature.\n(§3) Because it is possible to separate chromaffin cells into populations which contain epinephrine and norepinephrine, these cells were used to test sensor 76."}, "[2]": {"tested_on": "epinephrine-enriched chromaffin cells", "test": "Staining epinephrine-enriched chromaffin cells with Sensor IIb", "type": "cell-based", "conditions": "identical conditions as norepinephrine cells", "from_the_text": "as §1, §2, §3"}, "[3]": {"test": "UV-vis absorption / fluorescence titration of sensor Ia with dopamine", "type": "binding", "conditions": "excited at 484 nm, FIG. 8", "from_the_text": "First, the sensors I produce a large chromophoric response when reacting with primary amines under physiological conditions. One exemplary coumarin-based sensor, 2-(((5-(7-(diethylamino)-3-formyl-2-oxo-2H-chromen-4-yl)pentyl)(methyl)amino)methyl)phenylboronic acid, sensor Ia, has been examined spectrophotometrically by titration with dopamine under neutral aqueous conditions in which a reducing agent is included to suppress oxidation of the air-sensitive catechol group.\nThe titration conditions are 10 μM sensor Ia with 100 mM Na2S2O3, 50 mM HEPES, 20 mM NaCl, pH=7.0, and at 37° C. […] Therefore, the inventive coumarin-based sensors I are selective for primary amines. See also, Org. Lett. 2004, 6(21), 3727-3730, which is incorporated herein by reference.\nTable 2 also lists the fluorescence response of the sensor Ia as Isat/I0 (the maximum fluorescence change at saturation) for three different excitation wavelengths: 446 nm, 484 nm, and 495 nm. By exciting sensor Ia at the aldehyde absorption maximum (446 nm), a decrease in fluorescence has been observed for all analytes because the sensor shifted from the aldehyde to the iminium ion form. At higher wavelengths of excitation, simple amines give the typical large increase in fluorescence since the iminium ion preferentially absorbs at these wavelengths. […] The fluorescence quenching effect is found to be directly related to the catechol group. […]"}},
  "data": [
    {"compound": "CN(CCCSc1c(C=O)c(=O)n(Cc2ccccc2)c2cc(N(C)C)ccc12)Cc1ccccc1B(O)O", "note": "[Sensor IIb]", "values": [
      {"measurement": "staining of norepinephrine-enriched cells", "setting": "[1]", "value": "stained brightly"},
      {"measurement": "staining of epinephrine-containing cells", "setting": "[2]", "value": "did not stain well"}
    ]},
    {"compound": "CCN(CC)c1ccc2c(CCCCCN(C)Cc3ccccc3B(O)O)c(C=O)c(=O)oc2c1", "note": "[Sensor Ia, 2-(((5-(7-(diethylamino)-3-formyl-2-oxo-2H-chromen-4-yl)pentyl)(methyl)amino)methyl)phenylboronic acid]", "values": [
      {"measurement": "fluorescence on binding dopamine", "setting": "[3]", "value": "quenched upon binding dopamine"}
    ]}
  ]
}
